“Also recorded” adds a separate entry of the source.
Assays:
CTLA-4 = molecular target: T1, CTLA-4 (Homo sapiens, UniProt P16410); experiment: CTLA-4 Blockade Bioassay (Promega); type: cell-based; set-up: host or cells: Jurkat T cells (CTLA-4 effector cells) co-cultured with aAPC/Raji cells; conditions: increasing concentrations
T1 sequence (P16410 36-223): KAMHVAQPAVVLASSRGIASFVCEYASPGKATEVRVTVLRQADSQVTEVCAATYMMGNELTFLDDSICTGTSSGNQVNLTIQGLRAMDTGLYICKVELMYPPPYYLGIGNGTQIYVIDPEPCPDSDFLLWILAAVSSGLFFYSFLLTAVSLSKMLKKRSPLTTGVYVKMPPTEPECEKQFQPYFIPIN
Procedure: CTLA-4 effector cells were incubated with aAPC/Raji Cells in the absence or presence of increasing concentrations of anti-CTLA-4 antibody (positive control), RLS-0122, RLS-0150, RLS-0154, RLS-0164 and RLS-0168 and RLS-0088 (negative control). Luminescence was detected in luminometer plate reader. The drop-off in signal with the test peptides at high concentrations is due to cell death as a result of peptide buffer effects on the cells.
To assess if PIC1 peptides could block CTLA-4 inhibitory activity in a cell-based assay, select peptides were screened in the CTLA-4 Blockade Bioassay (Promega). This bioluminescent cell-based assay can be used to measure the potency and stability of molecules targeting CTLA-4 and consists of two genetically engineered cell lines: CTLA-4 effector cells: Jurkat T cells expressing human CTLA-4 and a luciferase reporter driven by a native promoter which responds to TCR/CD28 activation and aAPC/Raji Cells: Raji cells expressing an engineered cell surface protein designed to activate cognate TCRs in an antigen-independent manner and endogenously expressing CTLA-4 ligands CD80 and CD86. When the two cell types are co-cultured, CTLA-4 competes with CD28 for their shared ligands, CD80 and CD86 and thus inhibits CD28 pathway activation and promoter-mediated luminescence. Addition of a molecule that blocks the interaction of CTLA-4 with its ligands CD80 and CD86 results in promoter-mediated luminescence.

[1] = system: purified human Pan T-cells; experiment: T-cell exhaustion protocol (repeated CD3/CD28 Dynabead stimulation); type: cell-based; conditions: ELISA; for Caspase 3/7 levels, in words: peptides 2 mg/ml at each stimulation, day 8; for IFN-gamma levels in cell supernatants, in words / IL-2 levels in cell supernatants, in words: peptides 2 mg/ml, stimulation 2
Procedure: Purified human pan-T-cells were subject to stimulation with Dynabeads every 48 hours over the period of 8 days with cells also receiving PIC1 peptides (2 mg/ml) at each stimulation. Cells not receiving Dynabeads were run in parallel to assess background levels of Caspase 3/7 signal. At the eighth day, cells were harvested, and the levels of Caspase 3/7 determined by ELISA.
Purified human pan-T-cells were subject to stimulation with Dynabeads every 48 hours over the period of 8 days with cells also receiving PIC1 peptides (2 mg/ml) at each stimulation. Cell supernatants were collected at each stimulation and levels of IL-2 and IFN-gamma assayed by ELISA.
T-cell exhaustion is a form of T-cell dysfunction that occurs in cancer. It is generally defined by poor effector function, reduction in cytokine release (e.g., IL-2, TNF-alpha, IFN-gamma), sustained expression of inhibitory receptors (e.g., PD-1, LAG-3, CD244, CD160) with the progressive loss of effector function due to overstimulation. Exhaustion can prevent optimal control of tumor growth. Exhausted T cells are prevalent in the tumor microenvironment (TME) and can lead to T-cell apoptosis. T-cell exhaustion is reversible and pharmaceutical inhibition of T-cell exhaustion has been considered a promising strategy by many cancer researchers. To ascertain if PIC1 peptides could reverse T-cell exhaustion and increase T cell viability and effector function, a T-cell exhaustion protocol was developed. To induce T-cell exhaustion, purified human Pan T-cells were stimulated with T-Activator CD3/CD28 Dynabeads and cells were washed and re-stimulated every 48 hours. PIC1 peptides were added to the cells after each stimulation with Dynabeads. After three to four stimulations, cells were harvested for readouts which consisted of assessing T-cell apoptosis by measuring Caspase 3/7 levels and production of cytokines IL-2 and IFN-gamma, which are indicative of T-cell functionality. […] To further evaluate if PIC1 peptides could restore T-cell functionality in cells that have undergone the exhaustion protocol, the inventors next assessed production of cytokines IL-2 and IFN-gamma. Supernatants from the cells after each stimulation was collected and the cytokines measured by ELISA. […] The lower level of IFN-gamma signal was consistently seen in this assay.

HUVECs = experiment: LPS-induced non-VEGF mediated angiogenesis (tube formation) in HUVECs; type: cell-based, human; conditions: peptides 10 mg/ml; LPS 10 ug/ml; overnight
Procedure: HUVEC cells were incubated with either RLS-0122, RLS-0150, RLS-0154, RLS-0164 and RLS-0168 followed by LPS addition and plating onto extracellular matrix. After overnight incubation, evidence of angiogenesis was determined by fluorescence microscopy. Cells receiving LPS and not receiving LPS served as positive and negative controls for angiogenesis.
Currently there are no drugs on the market to inhibit non-VEGF mediated angiogenesis. To assess whether the PIC1 peptides could inhibit non-VEGF mediated angiogenesis, the inventors developed a model of angiogenesis using human umbilical endothelial vein cells (HUVECs) in which addition of lipopolysaccharide (LPS) induces angiogenesis. HUVECs were first incubated with Cell Trace Violet dye, followed by addition of PIC1 peptides (10 mg/ml) for 1 hour at 37° C. and then treated with 10 ug/ml of LPS and placement on an extracellular matrix to promote angiogenesis. Cells were incubated overnight at 37° C. in a humidified CO2 incubator. Cells were then visualized for tube formation indicative of angiogenesis by fluorescence microscopy.

VEGF [2] = molecular target: T2, VEGF (Homo sapiens, UniProt P15692); experiment: VEGF Bioassay (Promega), VEGF signaling via VEGFR-2 (KDR); type: cell-based
T2 construct: Promega (bioassay)
T2 sequence (P15692 27-191 isoform P15692-4): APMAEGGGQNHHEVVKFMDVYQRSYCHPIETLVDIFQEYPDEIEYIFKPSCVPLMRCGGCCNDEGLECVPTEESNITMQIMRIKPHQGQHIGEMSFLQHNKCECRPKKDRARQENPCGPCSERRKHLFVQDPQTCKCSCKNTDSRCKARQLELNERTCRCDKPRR
Description: Luminescence was detected in luminometer plate reader.
(§1) Angiogenesis, or the formation of new blood vessels from the established vasculature, is an essential element in tumor growth and metastasis formation. Inhibiting tumor angiogenesis is considered a major therapeutic strategy in oncology. […] The bioluminescent signal is detected in a luminometer.

PD-1 binding to PD-L1 = molecular target: T3, PD-1 binding to PD-L1 (Homo sapiens, UniProt Q9NZQ7); experiment: PD-1:PD-L1 inhibitor screening ELISA; conditions: FIG. 8
T3 construct: purchased
T3 sequence (Q9NZQ7 19-238 limits assumed): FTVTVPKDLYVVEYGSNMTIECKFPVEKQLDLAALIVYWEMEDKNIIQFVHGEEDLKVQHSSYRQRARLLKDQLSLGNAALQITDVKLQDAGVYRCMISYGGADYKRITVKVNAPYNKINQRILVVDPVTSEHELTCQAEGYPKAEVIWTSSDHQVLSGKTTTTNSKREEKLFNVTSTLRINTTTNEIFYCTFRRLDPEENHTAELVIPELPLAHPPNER
Procedure: PIC1 peptides were allowed to bind to immobilized PD-L1 on the surface of the plate. Biotinylated PD-1 was then added and bound PD-1 detected by streptavidin-HRP reagent followed by TMB as the substrate for the colorimetric assay.
This inhibitor screening ELISA pair was designed to facilitate the identification and characterization of new PD-1 pathway inhibitors. In this assay, biotinylated human PD-1 was bound to immobilized human PD-L1 and a colorimetric sandwich ELISA platform was used. Plates were coated with human PD-L1 followed by incubation with various PIC1 peptides. Human PD-1-Biotin was then allowed to bind the coated human PD-L1 followed by addition of streptavidin-HRP. TMB was then added as the colorimetric HRP substrate and the wells of the plate analyzed in a plate reader at an absorbance of 450 nm.
The immune checkpoint pathway is an area of significant interest in cancer research. PD-1 is one of the best characterized checkpoint proteins. The binding between PD-1 and its ligand PD-L1 suppresses T-cell activation and allows cancer cells to escape from body's immune surveillance. Therefore, the pharmaceutical inhibition of PD-1 or its ligand has been considered a promising strategy by many cancer researchers. To ascertain if these PIC1 derivatives could inhibit PD-1 interaction with PD-L1, a commercial ELISA kit was utilized. […]

[3] = without PEGylation; as described in U.S. Pat. No. 10,005,818; cited from earlier work
[4] = Total Antioxidant Capacity (TAC) assay; conditions: highest peptide concentration 1.5 mM; compared to parent peptide
Procedure: As previously reported, the TAC (Total Antioxidant Capacity) Assay (Cell Biolabs, Inc, San Diego, CA) was used to measure the antioxidant capacity of the PIC1 variants based on the reduction of copper (II) to copper (I). The kit protocol was performed per the manufacturer's recommendations.
The antioxidant properties for the PIC1 variants were evaluated in a Total Antioxidant Capacity (TAC) assay, as previously reported. Total antioxidant activity over a range of peptide concentrations were determined for the stapled and the D-amino acid peptides based on the PA-I8Sar and PA-C9Sar backbones (FIG. 4A-4B), with the activity of the highest peptide concentration reported (1.5 mM) (FIG. 5A-5C).

VEGF [5] = molecular target: T2, VEGF; experiment: VEGF binding ELISA plate-based assay; conditions: peptides 1 mg/ml
Procedure: A fixed amount of PIC1 peptides (1 mg/ml) were added to the plates followed by a rabbit polyclonal antibody that recognizes the peptides and then a secondary anti-rabbit antibody conjugated with HRP. The plate was then developed by addition of TMB as the substrate for the colorimetric assay.
as §1

| Substance | inhibition of CTLA-4 mediated cell signaling (increase in luminescence), in words (CTLA-4; listed as RLS-0168) | Caspase 3/7 levels, in words ([1]; listed as RLS-0168) | IFN-gamma levels in cell supernatants, in words ([1]; listed as RLS-0168) | IL-2 levels in cell supernatants, in words ([1]; listed as RLS-0168) | tube formation / angiogenesis inhibition, in words (HUVECs) | inhibition of VEGF signaling via VEGFR-2 (luminescence), in words (VEGF [2]) | inhibition of binding of PD-1 to PD-L1, in words (PD-1 binding to PD-L1) | solubility in water [3] | inhibition of CTLA-4 mediated cell signaling (increase in luminescence), in words (CTLA-4) | inhibition of CTLA-4 mediated cell signaling (increase in luminescence), in words (CTLA-4; listed as RLS-0164) | Caspase 3/7 levels, in words ([1]; listed as RLS-0164) | IFN-gamma levels in cell supernatants, in words ([1]; listed as RLS-0164) | IL-2 levels in cell supernatants, in words ([1]; listed as RLS-0164) | total antioxidant capacity, in words [4] | binding to VEGF, in words (VEGF [5]) |
| --- | --- | --- | --- | --- | --- | --- | --- | --- | --- | --- | --- | --- | --- | --- | --- |
| IALILEPI(Sar)CQERdAA (IALILEPIXCQERAA; D-Ala; sarcosine; MOD_RES (9)..(9) Sarcosine; MOD_RES (14)..(14) D-amino acid) [PA-0168] | showed inhibitory activity; also recorded: able to inhibit CTLA-4 mediated cell signaling | very low to undetectable levels; also recorded: reduced levels | detectable at stimulation 2; also recorded: increased levels | detectable IL-2 at stimulation 2; also recorded: increased levels | no detectable tube formation | did not inhibit signaling |  |  |  |  |  |  |  |  |  |
| IALILEP(Sar)CCQERAA (IALILEPXCCQERAA; sarcosine at position 8; MOD_RES (8)..(8) Sarcosine) [PA-0088, parent peptide, sarcosine at position 8 of PIC1] |  |  |  |  |  |  | did not inhibit | water soluble without PEGylation | no inhibitory over background |  |  |  |  |  |  |
| IALILEPI(Sar)dCQERAA (IALILEPIXCQERAA; D-Cys; sarcosine; MOD_RES (9)..(9) Sarcosine; MOD_RES (10)..(10) D-amino acid) [PA-0164] |  |  |  |  | no detectable tube formation | did not inhibit signaling |  |  |  | showed inhibitory activity; also recorded: able to inhibit CTLA-4 mediated cell signaling | decreased levels; also recorded: reduced levels | showed IL-2 and IFN-gamma signal at stimulation 2; also recorded: increased levels | showed IL-2 and IFN-gamma signal at stimulation 2; also recorded: increased levels | enhanced activity | binding with high affinity |

From patent US20230303623A1, “PEPTIDES AND METHODS OF USE” (REALTA LIFE SCIENCES, INC., priority 2020, published 2023)
